US8921307B2, “Synthetic linear apelin mimetics for the treatment of heart failure” (priority 2012, dated 2014)
Where a SMILES comes first, the peptide text is derived from it. [ ]: non-standard residue; d: D form. The star is where a group is joined. dTic = O=C(O)[C@H]1Cc2ccccc2CN1; Cha = N[C@@H](CC1CCCCC1)C(=O)O; pGlu = O=C1CC[C@@H](C(=O)O)N1; dNle = CCCC[C@@H](N)C(=O)O; dNva = CCC[C@@H](N)C(=O)O; Nle = CCCC[C@H](N)C(=O)O; Aib = CC(C)(N)C(=O)O; tBu = CC(C)(C)*

Key:
hAPJ = biological target: T1, hAPJ (Homo sapiens, UniProt P35414); experiment: hAPJ Calcium Flux Assay; assay type: cell-based; conditions: Chem-5 APJ stable cells, FLIPR calcium flux stimulation; read-out: hAPJ Ca^2+ Flux EC50
T1 sequence (P35414 1-380): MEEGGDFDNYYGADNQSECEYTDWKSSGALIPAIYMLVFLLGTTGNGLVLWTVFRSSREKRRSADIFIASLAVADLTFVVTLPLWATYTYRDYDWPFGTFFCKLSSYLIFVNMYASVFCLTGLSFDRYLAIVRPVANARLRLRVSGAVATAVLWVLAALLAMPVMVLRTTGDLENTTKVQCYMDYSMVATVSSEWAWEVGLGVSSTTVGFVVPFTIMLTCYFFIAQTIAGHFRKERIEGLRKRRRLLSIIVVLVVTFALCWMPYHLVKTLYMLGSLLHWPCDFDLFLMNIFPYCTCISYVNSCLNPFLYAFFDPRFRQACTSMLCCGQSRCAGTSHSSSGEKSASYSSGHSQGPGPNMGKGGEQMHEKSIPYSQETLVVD
Experimental: Chem-5 APJ stable cells (Millipore # HTS068C) were plated in 384-well format with 10,000 cells/well in 25 ul growth media, then grown 24 hours in a 37° C. tissue culture incubator. One hour before the assay, 25 ul/well FLIPR Calcium 4 dye (Molecular Devices R8142) with 2.5 mM probenecid was added, and cells were incubated one hour in a 37° C. tissue culture incubator. Peptides were solubilized in HBSS, HEPES & 0.1% BSA buffer, and serially-diluted 10-fold, from 50 uM to […], in triplicate. FLIPR Tetra was used to add peptide to the cells with dye (1:5, for final peptide concentrations ranging from 10 uM to […]). FLIPR dye inside the cells emitted fluorescence after binding to calcium, while fluorescence from outside the cells was masked. Fluorescence was measured using 470-495 excitation and 515-575 emission wavelengths on the FLIPR Tetra. Readings were done for 3 minutes total, beginning 10 seconds before the peptide addition. Maximum-minimum values were calculated and plotted for each peptide concentration, and GraphPad prism software was used to calculate EC50 values at the curve inflection points, for calcium flux stimulation by peptides.

[1] = Surrogate Activity-Based Plasma Stability Assay; assay type: in vitro ADME; conditions: rat, Surrogate activity-based Plasma stability t½
Experimental: Stability half-life was then calculated by the formula, t½=0.693÷k Surrogate Activity-Based Plasma Stability Assay: […]
2) Calculate slope of value above and […]

EC50 (hAPJ) [µM] | half-life [1] [h] | SMILES
0.155 | > 16.7 | CCCC[C@@H](NC(=O)[C@@H]1CCCN1C(=O)CNC(=O)[C@H](CCCCN)NC(=O)[C@H](Cc1c[nH]cn1)NC(=O)[C@@H](CC(C)C)NC(=O)[C@H](CC(C)C)NC(=O)[C@H](CCCNC(=N)N)NC(=O)[C@@H]1CCCN1C(=O)[C@H](CCCNC(=N)N)NC(=O)[C@@H]1CCC(=O)N1)C(=O)N[C@H](C)C(=O)N[C@H](Cc1ccccc1)C(=O)O [Example 10, pE-R-P-R-L-(D-Leu)-H-K-G-P-nle-a-f-OH] ([pGlu]RPRL[dL]HKGP[dNle][dA][dF]-OH)
0.0021 | > 16.7 | CCCC[C@@H](NC(=O)[C@@H]1CCCN1C(=O)CNC(=O)[C@H](CCCCN)NC(=O)C(C)(C)NC(=O)[C@@H](C)NC(=O)[C@H](CC(C)C)NC(=O)[C@H](CCCNC(=N)N)NC(=O)[C@@H]1CCCN1C(=O)[C@H](CCCNC(=N)N)NC(=O)[C@@H]1CCC(=O)N1)C(=O)N[C@H](C)C(=O)N[C@H](Cc1ccccc1)C(=O)O [Example 15, pE-R-P-R-L-a-Aib-K-G-P-nle-a-f-OH] ([pGlu]RPRL[dA][Aib]KGP[dNle][dA][dF]-OH)
0.0728 | 1.68 | CCCC[C@@H](NC(=O)[C@@H]1CCCN1C(=O)CNC(=O)[C@H](CCCCN)NC(=O)[C@@H](Cc1ccccc1)NC(=O)[C@H](CO)NC(=O)[C@H](CC(C)C)NC(=O)[C@H](CCCNC(=N)N)NC(=O)[C@@H]1CCCN1C(=O)[C@H](CCCNC(=N)N)NC(=O)[C@@H]1CCC(=O)N1)C(=O)N[C@H](C)C(=O)N[C@H](Cc1ccccc1)C(=O)O [Example 55, pE-R-P-R-L-S-f-K-G-P-nle-a-f-OH] ([pGlu]RPRLS[dF]KGP[dNle][dA][dF]-OH)
0.0068 | 5.52 | CCCC[C@@H](NC(=O)[C@@H]1CCCN1C(=O)CNC(=O)[C@H](CCCCN)NC(=O)[C@@H](Cc1c[nH]cn1)NC(=O)[C@H](CO)NC(=O)[C@H](CC(C)C)NC(=O)[C@H](CCCNC(=N)N)NC(=O)[C@@H]1CCCN1C(=O)[C@H](CCCNC(=N)N)NC(=O)[C@@H]1CCC(=O)N1)C(=O)N[C@H](C)C(=O)N[C@H](Cc1ccccc1)C(=O)O [Example 56, pE-R-P-R-L-S-h-K-G-P-nle-a-f-OH] ([pGlu]RPRLS[dH]KGP[dNle][dA][dF]-OH)
0.0011 | > 16.7 | CCCC[C@@H](NC(=O)[C@@H]1CCCN1C(=O)CNC(=O)[C@H](CCCCN)NC(=O)[C@H](Cc1c[nH]cn1)NC(=O)[C@@H](C)NC(=O)[C@H](CC(C)C)NC(=O)[C@H](CCCNC(=N)N)NC(=O)[C@@H]1CCCN1C(=O)[C@H](CCCNC(=N)N)NC(=O)[C@@H]1CCC(=O)N1)C(=O)N1CCC[C@@H]1C(=O)N[C@H](Cc1ccccc1)C(=O)O [Example 13, pE-R-P-R-L-a-H-K-G-P-nle-p-f-OH] ([pGlu]RPRL[dA]HKGP[dNle][dP][dF]-OH)
0.169 | > 16.7 | CCCC[C@@H](NC(=O)[C@@H]1CCCN1C(=O)CNC(=O)[C@H](CCCCN)NC(=O)[C@H](Cc1c[nH]cn1)NC(=O)[C@@H](C)NC(=O)[C@H](CC(C)C)NC(=O)[C@H](CCCNC(=N)N)NC(=O)[C@@H]1CCCN1C(=O)[C@H](CCCNC(=N)N)NC(=O)[C@@H]1CCC(=O)N1)C(=O)N[C@H](CCC(=O)O)C(=O)N[C@H](Cc1ccccc1)C(=O)O [Example 19, pE-R-P-R-L-a-H-K-G-P-nle-e-f-OH] ([pGlu]RPRL[dA]HKGP[dNle][dE][dF]-OH)
0.002 | 2.97 | CCCC[C@@H](NC(=O)[C@@H]1CCCN1C(=O)CNC(=O)[C@H](CCCCN)NC(=O)[C@H](Cc1c[nH]cn1)NC(=O)[C@@H](C)NC(=O)[C@H](CC(C)C)NC(=O)[C@H](CCCNC(=N)N)NC(=O)[C@@H]1CCCN1C(=O)[C@H](CCCNC(=N)N)NC(=O)[C@@H]1CCC(=O)N1)C(=O)N1CCC(Oc2ccccc2)CC1 [Example 43, pE-R-P-R-L-a-H-K-G-P-nle-(4-Phenoxypiperidin-1-yl)]
0.0009 | 15 | CCCC[C@@H](NC(=O)[C@@H]1CCCN1C(=O)CNC(=O)[C@H](CCCCN)NC(=O)[C@H](Cc1c[nH]cn1)NC(=O)[C@@H](C)NC(=O)[C@H](CC(C)C)NC(=O)[C@H](CCCNC(=N)N)NC(=O)[C@@H]1CCCN1C(=O)[C@H](CCCNC(=N)N)NC(=O)[C@@H]1CCC(=O)N1)C(=O)N[C@H](CCC)C(=O)N[C@H](Cc1ccccc1)C(=O)O [Example 54, pE-R-P-R-L-a-H-K-G-P-nle-nva-f-OH] ([pGlu]RPRL[dA]HKGP[dNle][dNva][dF]-OH)
0.0345 | 0.387 | CCCC[C@H](NC(=O)[C@@H]1CCCN1C(=O)CNC(=O)[C@H](CCCCN)NC(=O)[C@H](Cc1c[nH]cn1)NC(=O)[C@@H](C)NC(=O)[C@H](CC(C)C)NC(=O)[C@H](CCCNC(=N)N)NC(=O)[C@@H]1CCCN1C(=O)[C@H](CCCNC(=N)N)NC(=O)[C@@H]1CCC(=O)N1)C(=O)N1CCC[C@H]1C(=O)N[C@H](Cc1ccccc1)C(=O)O [Example 34, pE-R-P-R-L-a-H-K-G-P-Nle-P-f-OH] ([pGlu]RPRL[dA]HKGP[Nle]P[dF]-OH)
0.797 | > 16.7 | CCCC[C@@H](NC(=O)[C@@H]1CCCN1C(=O)CNC(=O)[C@H](CCCCN)NC(=O)[C@H](Cc1c[nH]cn1)NC(=O)[C@@H](C)NC(=O)[C@H](CC(C)C)NC(=O)[C@H](CCCNC(=N)N)NC(=O)[C@@H]1CCCN1C(=O)[C@@H](CCCNC(=N)N)NC(=O)[C@@H]1CCC(=O)N1)C(=O)N[C@H](C)C(=O)N[C@H](Cc1ccccc1)C(=O)O [Example 3, pE-r-P-R-L-a-H-K-G-P-nle-a-f-OH]
0.0868 | > 16.7 | CCCC[C@@H](NC(=O)[C@@H]1CCCN1C(=O)CNC(=O)[C@H](CCCCN)NC(=O)[C@H](Cc1c[nH]cn1)NC(=O)[C@@H](C)NC(=O)[C@H](CC(C)C)NC(=O)[C@H](CCCNC(=N)N)NC(=O)[C@@H]1CCCN1C(=O)[C@H](CCCNC(=N)N)NC(=O)[C@@H]1CCC(=O)N1)C(=O)N[C@H](C)C(=O)N[C@H](CC(=O)O)C(=O)O [Example 22, pE-R-P-R-L-a-H-K-G-P-nle-a-d-OH] ([pGlu]RPRL[dA]HKGP[dNle][dA][dD]-OH)
0.0094 | 3.75 | CCCC[C@@H](NC(=O)[C@@H]1CCCN1C(=O)CNC(=O)[C@H](CCCCN)NC(=O)[C@H](Cc1c[nH]cn1)NC(=O)[C@@H](CCC)NC(=O)[C@H](CC1CCCCC1)NC(=O)[C@H](CCCNC(=N)N)NC(=O)[C@@H]1CCCN1C(=O)[C@H](CCCNC(=N)N)NC(=O)[C@@H]1CCC(=O)N1)C(=O)N[C@H](C)C(=O)N[C@H](Cc1ccccc1)C(=O)O [Example 63, pE-R-P-R-Cha-nva-H-K-G-P-nle-a-f-OH] ([pGlu]RPR[Cha][dNva]HKGP[dNle][dA][dF]-OH)
0.0017 | 16.4 | CCCC[C@@H](NC(=O)[C@@H]1CCCN1C(=O)CNC(=O)[C@H](CCCCN)NC(=O)[C@H](Cc1c[nH]cn1)NC(=O)[C@@H](C)NC(=O)[C@H](CC(C)C)NC(=O)[C@H](CCCNC(=N)N)NC(=O)[C@@H]1CCCN1C(=O)[C@H](CCCNC(=N)N)NC(=O)[C@@H]1CCC(=O)N1)C(=O)N[C@H](C)C(=O)N1Cc2ccccc2C[C@@H]1C(=O)O [Example 26, pE-R-P-R-L-a-H-K-G-P-nle-a-tic-OH] ([pGlu]RPRL[dA]HKGP[dNle][dA][dTic]-OH)
0.693 | > 16.7 | CCCC[C@@H](NC(=O)[C@@H]1CCCN1C(=O)CNC(=O)[C@H](CCCCN)NC(=O)[C@H](Cc1c[nH]cn1)NC(=O)[C@@H](CSC(C)(C)C)NC(=O)[C@H](CC(C)C)NC(=O)[C@H](CCCNC(=N)N)NC(=O)[C@@H]1CCCN1C(=O)[C@H](CCCNC(=N)N)NC(=O)[C@@H]1CCC(=O)N1)C(=O)N[C@H](C)C(=O)N[C@H](Cc1ccccc1)C(=O)O [Example 7, pE-R-P-R-L-c(tBu)-H-K-G-P-nle-a-f-OH] ([pGlu]RPRL[dC](tBu)HKGP[dNle][dA][dF]-OH)
0.114 | > 16.7 | CCCC[C@@H](NC(=O)[C@@H]1CCCN1C(=O)CNC(=O)[C@H](CCCCN)NC(=O)[C@H](Cc1c[nH]cn1)NC(=O)[C@@H](C)NC(=O)[C@H](Cc1ccc(O)cc1)NC(=O)[C@H](CCCNC(=N)N)NC(=O)[C@@H]1CCCN1C(=O)[C@H](CCCNC(=N)N)NC(=O)[C@@H]1CCC(=O)N1)C(=O)N[C@H](C)C(=O)N[C@H](Cc1ccccc1)C(=O)O [Example 28, pE-R-P-R-Y-a-H-K-G-P-nle-a-f-OH] ([pGlu]RPRY[dA]HKGP[dNle][dA][dF]-OH)
0.0092 | 8.87 | CCCC[C@@H](NC(=O)[C@@H]1CCCN1C(=O)CNC(=O)[C@H](CCCCN)NC(=O)[C@@H](Cc1ccccc1)NC(=O)[C@@H](C)NC(=O)[C@H](CC(C)C)NC(=O)[C@H](CCCNC(=N)N)NC(=O)[C@@H]1CCCN1C(=O)[C@H](CCCNC(=N)N)NC(=O)[C@@H]1CCC(=O)N1)C(=O)N[C@H](C)C(=O)N[C@H](Cc1ccccc1)C(=O)O [Example 46, pE-R-P-R-L-a-f-K-G-P-nle-a-f-OH] ([pGlu]RPRL[dA][dF]KGP[dNle][dA][dF]-OH)
